From ChEMBL document CHEMBL1201862, “PubChem BioAssay data set” (2004)
The source made the active and inactive calls.

Legend:
Large T antigen = Large T antigen (Simian virus 40, UniProt P03070); format: functional, Betapolyomavirus macacae;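 note: Confirmatory-stage PubChem screen for compounds that inhibit SV40 T antigen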
cells [1] = format: functional, cell-based
cells [2] = format: functional, cell-based; remark: listed apart in the source
[3] = target: T1, Calpain-2 catalytic subunit (Sus scrofa, UniProt P43367); assay: pig calpain II inhibitor potency, dose response, biochemical, fluorogenic peptide substrate (AID 1420); format: functional
T1 sequence (P43367 whole entry): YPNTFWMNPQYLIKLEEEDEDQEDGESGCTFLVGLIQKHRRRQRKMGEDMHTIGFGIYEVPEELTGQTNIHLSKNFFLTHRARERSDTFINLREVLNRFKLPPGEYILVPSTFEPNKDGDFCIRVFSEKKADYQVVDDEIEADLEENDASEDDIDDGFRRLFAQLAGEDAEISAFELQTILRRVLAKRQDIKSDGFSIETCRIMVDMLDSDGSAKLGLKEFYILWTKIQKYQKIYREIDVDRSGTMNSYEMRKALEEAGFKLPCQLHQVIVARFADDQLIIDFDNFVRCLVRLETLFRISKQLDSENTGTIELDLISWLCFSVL

[4] = target: Voltage-dependent T-type calcium channel subunit alpha-1H (Homo sapiens, UniProt O95180); format: functional;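 note: channel activity triggered by adding a high calcium stimulation buffer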
[5] = target: T2, Rac GTPase-activating protein 1 (Homo sapiens, UniProt Q9H0H5); assay: MgcRacGAP GTPase-activating activity inhibitors, confirmation, biochemical, ADP Hunter fluorescence, primary and confirmatory (AID 624330); format: functional
T2 sequence (Q9H0H5 whole entry): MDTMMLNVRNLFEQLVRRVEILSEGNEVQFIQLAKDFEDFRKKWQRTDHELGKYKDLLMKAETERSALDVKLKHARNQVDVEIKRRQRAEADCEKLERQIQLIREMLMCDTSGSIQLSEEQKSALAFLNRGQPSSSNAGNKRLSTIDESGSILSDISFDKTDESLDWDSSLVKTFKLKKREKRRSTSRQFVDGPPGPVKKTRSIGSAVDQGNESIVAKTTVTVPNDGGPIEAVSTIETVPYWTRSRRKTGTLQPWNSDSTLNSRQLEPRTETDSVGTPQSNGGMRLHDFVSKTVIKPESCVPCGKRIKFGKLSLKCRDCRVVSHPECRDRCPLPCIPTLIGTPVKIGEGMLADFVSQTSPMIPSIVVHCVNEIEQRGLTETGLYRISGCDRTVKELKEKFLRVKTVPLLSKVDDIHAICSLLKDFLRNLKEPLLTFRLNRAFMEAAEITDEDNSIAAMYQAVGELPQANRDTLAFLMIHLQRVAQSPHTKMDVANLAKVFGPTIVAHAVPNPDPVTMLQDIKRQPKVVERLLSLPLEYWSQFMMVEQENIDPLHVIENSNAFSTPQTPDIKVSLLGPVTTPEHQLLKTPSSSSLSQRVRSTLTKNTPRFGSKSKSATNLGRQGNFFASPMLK

[6] = inhibitors of SNCA 5'UTR-driven reporter translation, confirmation, H4 neuroglioma cells, luminescence (AID 1988); format: functional, cell-based
[7] = inhibitors of firefly luciferase expression or activity, dose response, H4 neuroglioma cells, luminescence (AID 1990); format: functional, cell-based
[8] = Luminescence Cell-Based Dose Response HTS to Identify Inhibitors of 5'UTR Stem-Loop Driven Prion Protein mRNA Translation in H4 Neuroglioblastoma Cells. [Related pubchem assays: 1827 (Project Summary), 1813 (Primary HTS)]; format: functional
[9] = growth suppression of PTEN-null colon cells, dose response, cell-based, HCT116 PTEN knockout (AID 1047); format: functional;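 note: HCT116 colon tumor cells with PTEN knocked out; cells exposed to compound for 60 hours before readout; potency for loss of cell viability measured by luminescence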
[10] = growth suppression of beta-catenin-knockout colon cells, dose response, cell-based, HCT116, human colon tumor (AID 1045); format: functional;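 note: HCT116 colon tumor cells with beta catenin knocked out; cells exposed to compound for 60 hours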
[11] = Shn3 3'UTR reporter inhibitors, dose response, cell-based, Clone20 osteoblasts, firefly luciferase, cherry-picked (AID 624132); format: functional;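 note: firefly luciferase luminescence from reporter carrying the Shn3 3'UTR in osteoblasts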
[12] = control 3'UTR Renilla luciferase suppression, dose response, counter-screen for Shn3 inhibitor project, cell-based, Clone20-Shn3RL, cherry-picked (AID 624133); format: functional
Cytochrome P450 2C19 = Cytochrome P450 2C19 (Homo sapiens, UniProt P33261); assay: Cytochrome panel assay with activity outcomes. Panel member name: p450-cyp2c19 Compounds with AC50 equal or less than 10 uM are considered active; format: functional; settings: read-out: AC50
Cytochrome P450 3A4 = Cytochrome P450 3A4 (Homo sapiens, UniProt P08684);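 note: CYP3A4 tested as one member of a cytochrome P450 panel screen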
[13] = target: Heat shock protein HSP 90-alpha (Homo sapiens, UniProt P07900); format: functional, organism-based
Protein RecA = target: T3, Protein RecA (Mycobacterium tuberculosis, UniProt P9WHJ3); assay: Fluorescence Cell-Free Homogeneous Dose Retest to Identify Inhibitors of RecA-Intein Splicing Activity. [Related pubchem assays (depositor defined):AID2097, AID2223, AID489010, AID492950]; format: functional
T3 sequence (P9WHJ3 whole entry): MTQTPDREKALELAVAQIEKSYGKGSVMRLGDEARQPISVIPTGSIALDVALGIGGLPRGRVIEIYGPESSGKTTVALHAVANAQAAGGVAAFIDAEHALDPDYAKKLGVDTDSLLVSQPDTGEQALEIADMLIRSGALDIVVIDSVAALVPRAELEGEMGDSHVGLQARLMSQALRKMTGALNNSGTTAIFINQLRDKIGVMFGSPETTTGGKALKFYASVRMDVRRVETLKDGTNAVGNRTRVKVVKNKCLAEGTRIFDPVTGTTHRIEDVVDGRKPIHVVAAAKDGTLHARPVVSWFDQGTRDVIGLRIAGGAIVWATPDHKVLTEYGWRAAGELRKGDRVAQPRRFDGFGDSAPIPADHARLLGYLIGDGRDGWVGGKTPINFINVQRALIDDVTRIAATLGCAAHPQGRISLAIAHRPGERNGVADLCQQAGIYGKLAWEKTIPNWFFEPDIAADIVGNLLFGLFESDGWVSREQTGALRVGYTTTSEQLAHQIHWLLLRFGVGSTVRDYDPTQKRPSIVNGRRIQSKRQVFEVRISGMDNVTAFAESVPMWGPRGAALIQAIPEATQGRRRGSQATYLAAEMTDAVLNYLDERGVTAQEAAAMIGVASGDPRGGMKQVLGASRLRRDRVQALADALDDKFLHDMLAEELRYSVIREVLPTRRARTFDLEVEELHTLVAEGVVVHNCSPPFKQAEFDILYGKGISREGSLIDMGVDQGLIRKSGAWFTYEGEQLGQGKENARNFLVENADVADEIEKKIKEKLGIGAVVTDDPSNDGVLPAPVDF

[14] = target: T4, Replicative DNA helicase DnaB (Mycobacterium tuberculosis, UniProt P9WMR3); assay: DnaB intein splicing inhibitors, dose response, biochemical, cell-free fluorescence (AID 449749); format: functional
T4 sequence (P9WMR3 whole entry): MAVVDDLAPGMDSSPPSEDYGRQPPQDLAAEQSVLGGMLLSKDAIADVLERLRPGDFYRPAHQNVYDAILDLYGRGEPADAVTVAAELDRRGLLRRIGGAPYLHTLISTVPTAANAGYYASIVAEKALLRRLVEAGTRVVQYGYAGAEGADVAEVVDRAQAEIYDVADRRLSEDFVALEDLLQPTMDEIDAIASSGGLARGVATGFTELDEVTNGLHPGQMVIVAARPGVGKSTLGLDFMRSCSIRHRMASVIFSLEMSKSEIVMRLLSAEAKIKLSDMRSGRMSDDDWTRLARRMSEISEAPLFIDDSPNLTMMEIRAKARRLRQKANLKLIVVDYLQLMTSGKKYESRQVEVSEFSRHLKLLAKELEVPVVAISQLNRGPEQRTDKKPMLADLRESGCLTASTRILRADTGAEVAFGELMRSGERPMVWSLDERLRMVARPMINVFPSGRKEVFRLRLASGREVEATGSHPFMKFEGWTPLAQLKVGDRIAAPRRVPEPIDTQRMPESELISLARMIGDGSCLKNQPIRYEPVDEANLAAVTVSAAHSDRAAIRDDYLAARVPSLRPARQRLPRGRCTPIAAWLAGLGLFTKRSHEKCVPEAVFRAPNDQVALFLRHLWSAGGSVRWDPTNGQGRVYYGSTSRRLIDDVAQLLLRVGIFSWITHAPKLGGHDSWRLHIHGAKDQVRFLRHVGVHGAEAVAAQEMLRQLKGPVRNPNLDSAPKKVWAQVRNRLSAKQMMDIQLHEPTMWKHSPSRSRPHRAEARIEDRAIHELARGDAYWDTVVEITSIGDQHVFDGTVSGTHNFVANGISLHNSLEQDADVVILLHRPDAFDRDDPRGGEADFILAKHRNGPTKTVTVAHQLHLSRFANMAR

[15] = Luminescence Cell-Based Dose Retest to Confirm Inhibitors of Cancer Stem Cells. [Related pubchem assays (depositor defined):AID2717, AID2721]; format: functional; settings: Homo sapiens
[16] = HEp-2 cell cytotoxicity, dose response, cytotoxicity control for RSV inhibitor project, HTS (AID 2410); format: functional; settings: human respiratory syncytial virus

Large T antigen, sequence (P03070 whole entry): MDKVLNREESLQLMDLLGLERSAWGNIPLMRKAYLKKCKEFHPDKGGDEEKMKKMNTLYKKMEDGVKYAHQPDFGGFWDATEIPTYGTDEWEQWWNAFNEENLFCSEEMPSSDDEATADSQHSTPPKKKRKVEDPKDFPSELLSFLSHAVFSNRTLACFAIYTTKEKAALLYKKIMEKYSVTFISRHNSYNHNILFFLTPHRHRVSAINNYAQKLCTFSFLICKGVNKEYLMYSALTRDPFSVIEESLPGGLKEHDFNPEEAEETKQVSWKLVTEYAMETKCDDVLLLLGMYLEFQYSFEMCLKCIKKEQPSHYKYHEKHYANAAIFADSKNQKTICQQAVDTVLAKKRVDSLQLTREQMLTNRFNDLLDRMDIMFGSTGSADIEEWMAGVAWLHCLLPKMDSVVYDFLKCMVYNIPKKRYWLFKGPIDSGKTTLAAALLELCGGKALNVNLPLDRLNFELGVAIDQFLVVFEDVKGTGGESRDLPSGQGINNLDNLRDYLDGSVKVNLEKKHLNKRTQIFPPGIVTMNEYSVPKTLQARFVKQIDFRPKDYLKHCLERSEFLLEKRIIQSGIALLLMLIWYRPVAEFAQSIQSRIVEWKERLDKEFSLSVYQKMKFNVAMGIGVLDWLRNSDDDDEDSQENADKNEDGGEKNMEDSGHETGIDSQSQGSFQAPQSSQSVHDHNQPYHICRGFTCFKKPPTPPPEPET
Voltage-dependent T-type calcium channel subunit alpha-1H, sequence (O95180 whole entry): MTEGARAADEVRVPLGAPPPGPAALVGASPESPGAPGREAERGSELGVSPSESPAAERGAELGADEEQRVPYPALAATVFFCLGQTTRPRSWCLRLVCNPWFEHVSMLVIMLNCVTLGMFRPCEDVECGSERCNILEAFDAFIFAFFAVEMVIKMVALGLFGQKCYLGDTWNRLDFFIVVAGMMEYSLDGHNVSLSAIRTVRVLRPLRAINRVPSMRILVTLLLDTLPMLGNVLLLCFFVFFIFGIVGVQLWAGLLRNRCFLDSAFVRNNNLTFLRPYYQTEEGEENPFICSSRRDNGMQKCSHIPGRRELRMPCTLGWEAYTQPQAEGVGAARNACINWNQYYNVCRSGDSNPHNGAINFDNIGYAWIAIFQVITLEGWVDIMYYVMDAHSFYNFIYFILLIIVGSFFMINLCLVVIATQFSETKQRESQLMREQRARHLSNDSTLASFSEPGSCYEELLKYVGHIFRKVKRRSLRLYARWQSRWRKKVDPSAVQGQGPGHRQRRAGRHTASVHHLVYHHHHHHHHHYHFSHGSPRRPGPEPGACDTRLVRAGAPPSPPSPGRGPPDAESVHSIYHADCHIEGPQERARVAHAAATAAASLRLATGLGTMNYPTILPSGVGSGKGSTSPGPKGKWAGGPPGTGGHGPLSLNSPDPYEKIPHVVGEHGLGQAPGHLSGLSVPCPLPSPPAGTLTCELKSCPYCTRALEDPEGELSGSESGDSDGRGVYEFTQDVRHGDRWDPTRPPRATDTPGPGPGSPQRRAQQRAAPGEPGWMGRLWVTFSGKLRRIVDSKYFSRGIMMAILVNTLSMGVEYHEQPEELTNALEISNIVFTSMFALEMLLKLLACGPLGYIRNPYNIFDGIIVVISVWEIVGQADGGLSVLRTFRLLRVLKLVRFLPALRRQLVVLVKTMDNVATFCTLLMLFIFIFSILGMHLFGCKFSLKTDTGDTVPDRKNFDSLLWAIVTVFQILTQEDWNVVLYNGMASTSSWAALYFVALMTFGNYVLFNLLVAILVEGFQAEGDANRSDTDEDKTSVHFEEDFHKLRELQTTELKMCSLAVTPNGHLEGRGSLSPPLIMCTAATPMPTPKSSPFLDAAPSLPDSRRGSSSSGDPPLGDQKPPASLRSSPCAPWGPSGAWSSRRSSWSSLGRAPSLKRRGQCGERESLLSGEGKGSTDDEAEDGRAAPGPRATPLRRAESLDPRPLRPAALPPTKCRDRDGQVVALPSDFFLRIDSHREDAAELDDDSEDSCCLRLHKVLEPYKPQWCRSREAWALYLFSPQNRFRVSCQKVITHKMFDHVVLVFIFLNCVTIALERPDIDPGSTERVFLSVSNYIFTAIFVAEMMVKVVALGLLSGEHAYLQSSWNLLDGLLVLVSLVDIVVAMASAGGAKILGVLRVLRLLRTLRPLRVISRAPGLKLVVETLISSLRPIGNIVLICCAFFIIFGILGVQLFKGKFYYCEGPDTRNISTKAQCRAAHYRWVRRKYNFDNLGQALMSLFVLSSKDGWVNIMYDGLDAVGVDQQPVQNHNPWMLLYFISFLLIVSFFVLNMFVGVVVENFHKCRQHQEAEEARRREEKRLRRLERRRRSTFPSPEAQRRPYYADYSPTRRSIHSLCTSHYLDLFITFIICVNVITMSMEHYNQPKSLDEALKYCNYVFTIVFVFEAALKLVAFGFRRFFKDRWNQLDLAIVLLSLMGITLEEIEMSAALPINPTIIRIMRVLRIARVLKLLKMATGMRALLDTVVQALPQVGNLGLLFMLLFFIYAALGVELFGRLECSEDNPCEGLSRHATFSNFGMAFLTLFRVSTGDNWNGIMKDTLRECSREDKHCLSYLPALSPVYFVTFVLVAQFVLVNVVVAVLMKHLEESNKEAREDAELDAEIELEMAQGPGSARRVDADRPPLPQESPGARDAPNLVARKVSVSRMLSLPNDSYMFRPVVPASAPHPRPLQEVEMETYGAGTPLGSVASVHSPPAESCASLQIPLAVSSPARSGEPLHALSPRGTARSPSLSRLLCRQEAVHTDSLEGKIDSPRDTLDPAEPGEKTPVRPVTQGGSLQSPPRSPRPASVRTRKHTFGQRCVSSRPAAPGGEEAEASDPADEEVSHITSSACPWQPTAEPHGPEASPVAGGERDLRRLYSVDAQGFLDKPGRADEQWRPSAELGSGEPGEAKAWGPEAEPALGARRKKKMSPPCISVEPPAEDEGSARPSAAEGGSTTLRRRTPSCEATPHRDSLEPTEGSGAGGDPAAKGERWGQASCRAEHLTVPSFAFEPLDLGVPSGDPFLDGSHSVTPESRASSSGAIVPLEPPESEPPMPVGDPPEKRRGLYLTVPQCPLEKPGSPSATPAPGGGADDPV
Cytochrome P450 2C19, sequence (P33261 whole entry): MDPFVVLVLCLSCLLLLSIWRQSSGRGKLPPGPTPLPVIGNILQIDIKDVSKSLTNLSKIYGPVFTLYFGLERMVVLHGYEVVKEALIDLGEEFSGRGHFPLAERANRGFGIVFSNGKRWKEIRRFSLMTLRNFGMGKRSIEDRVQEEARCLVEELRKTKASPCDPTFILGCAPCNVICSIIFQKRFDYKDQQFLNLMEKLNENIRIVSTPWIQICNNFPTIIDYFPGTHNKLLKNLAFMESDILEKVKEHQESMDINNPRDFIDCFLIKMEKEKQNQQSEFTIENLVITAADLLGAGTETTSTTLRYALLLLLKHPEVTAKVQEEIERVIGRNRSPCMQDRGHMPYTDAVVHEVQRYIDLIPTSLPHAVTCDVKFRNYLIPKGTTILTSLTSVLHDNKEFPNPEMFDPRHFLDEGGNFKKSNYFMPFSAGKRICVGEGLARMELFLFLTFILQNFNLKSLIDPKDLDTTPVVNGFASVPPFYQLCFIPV
Cytochrome P450 3A4, sequence (P08684 whole entry): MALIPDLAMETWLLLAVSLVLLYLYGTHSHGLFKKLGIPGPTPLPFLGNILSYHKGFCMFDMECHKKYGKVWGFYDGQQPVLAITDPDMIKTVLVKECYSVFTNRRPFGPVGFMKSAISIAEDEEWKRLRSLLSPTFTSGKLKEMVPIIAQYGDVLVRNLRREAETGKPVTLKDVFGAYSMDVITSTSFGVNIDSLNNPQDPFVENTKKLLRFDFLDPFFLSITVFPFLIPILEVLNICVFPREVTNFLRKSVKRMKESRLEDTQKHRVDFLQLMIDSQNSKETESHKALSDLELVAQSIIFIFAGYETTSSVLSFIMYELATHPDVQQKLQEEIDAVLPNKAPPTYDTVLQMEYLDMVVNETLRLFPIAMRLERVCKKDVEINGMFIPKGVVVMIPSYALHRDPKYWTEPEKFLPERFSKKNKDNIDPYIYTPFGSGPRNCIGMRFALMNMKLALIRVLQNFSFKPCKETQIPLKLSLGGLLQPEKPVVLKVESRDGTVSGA

COc1cc([C@@H]2Oc3cc(C4Oc5cc(O)cc(O)c5C(=O)[C@H]4O)ccc3O[C@H]2CO)ccc1O (stereo partly specified)
IC50 (Large T antigen): 57.5 µM (active)

CC(O)CCc1ccc(O)cc1 (stereo unspecified)
IC50 (Large T antigen): 25.4 µM (active)

CCCCOc1ccc(C(=O)NCC(=O)OC2CCOC2=O)cc1 (stereo unspecified)
EC50 (cells [1]): > 350 µM (not active) | EC50 (cells [2]): > 350 µM (not active)

COc1ccccc1-n1c([S-])c(C(=O)Nc2ccccc2C(F)(F)F)[n+]2ccc(C(=O)NCCO)cc12
IC50 [3]: 6.82 µM (not active)

Cc1cccc(OCCCSc2nc3ccccc3[nH]2)c1
EC50 [4]: 3.47 µM (active)

COc1ccc(-c2cc(C(=O)NC(Cc3cc4ccccc4[nH]3)C(=O)O)c(C)o2)cc1OC (stereo unspecified)
IC50 [3]: 4.12 µM (not active)

O=C1N=C(NCc2ccccc2)S/C1=C/c1ccc(O)cc1
IC50 (Large T antigen): 11.7 µM (active) | IC50 [5]: 18.9 µM (active)

CCO/C(O)=C1\C(C)=NC2=C(C1c1ccc([N+](=O)[O-])cc1)S(=O)(=O)c1ccccc12 (stereo unspecified)
EC50 [6]: 23.9 µM (active) | EC50 [7]: 17.2 µM (active) | EC50 [8]: 17.8 µM (active) | EC50 [9]: 29 µM (active) | EC50 [10]: 31.4 µM (active)

CC(C)=CC(=O)OCC(=O)NC(=O)NC(C)(C)C
IC50 [3]: > 50 µM (not active)

CC(C)(C)CC(C)(C)c1ccc(OCC(=O)N/N=C/c2ccc(S(=O)(=O)O)o2)cc1
IC50 [3]: > 50 µM (not active)

O=C1CC(c2ccccc2)CC(=O)C1=CNc1cccc(Cl)c1 (stereo unspecified)
AC50 [11]: 4.94 µM (active) | AC50 [12]: 19.8 µM (active)

COc1ccc(CC(=O)Nc2ccc(-c3noc(-c4cccc(OC)c4)n3)cc2)cc1
AC50 (Cytochrome P450 2C19): 4.47 µM (inconclusive) | AC50 (Cytochrome P450 3A4): 1 µM (inconclusive) | EC50 [9]: 14.9 µM (active) | EC50 [10]: 11.8 µM (active)

CNC(=S)N1CCN(c2ccc(OC)cc2)CC1
IC50 (Large T antigen): 34 µM (active)

COc1cccc(C2=CC(c3cccs3)n3nnnc3N2)c1 (stereo unspecified)
IC50 [3]: 1.42 µM (not active)

O=C1c2ccccc2C(=O)N1CCCCSc1nnnn1-c1ccccc1
IC50 [3]: 9.41 µM (not active)

Cc1nn(-c2ccc([N+](=O)[O-])cc2)c(O)c1/C=N/CCN1CCN(C(=O)c2cccc(F)c2)CC1
AC50 [13]: 5.99 µM (active)

CC(=O)Nc1ccc(S(=O)(=O)N2CCc3c(Cl)cccc3C2)cc1
EC50 [4]: 4.82 µM (active)

CC(C)Sc1oc(-c2ccco2)nc1S(=O)(=O)c1ccc(F)cc1
EC50 [4]: 7.9 µM (active)

Cc1c(Cl)cccc1NC(=S)N/N=C/c1ccccc1Cl
EC50 (cells [1]): > 350 µM (not active) | EC50 (cells [2]): > 350 µM (not active)

COCc1ccc(C(=O)N2CCCC(CCC(=O)NCc3ccccc3F)C2)o1 (stereo unspecified)
EC50 (cells [1]): > 350 µM (not active) | EC50 (cells [2]): > 350 µM (not active)

COC(=O)c1c(NC(=O)c2ccc(S(=O)(=O)N3CCOCC3)cc2)sc2c1CCN(C)C2
EC50 [9]: 23.8 µM (active) | EC50 [10]: 14.9 µM (active)

COc1cc(CNc2ccc3c(c2)CCC3)cc(OC)c1O
IC50 (Large T antigen): > 100 µM (active)

CCOC(=O)C(NC(C)=O)(N1CCOCC1)C(F)(F)F (stereo unspecified)
EC50 (cells [1]): > 350 µM (not active) | EC50 (cells [2]): > 350 µM (not active)

COc1ccc(CNC(=S)N/N=C/c2ccc(O)c(OC)c2)cc1
EC50 (cells [1]): > 350 µM (not active) | IC50 (Large T antigen): 27.7 µM (active) | EC50 (cells [2]): > 350 µM (not active)

O=C(N/N=C1/CCCc2ccccc21)c1cc([N+](=O)[O-])cc([N+](=O)[O-])c1
IC50 [3]: 21.8 µM (not active)

CCC(=O)n1nc(NCc2ccccc2OC)nc1NCc1ccccc1OC
EC50 [4]: 1.68 µM (active)

O=C(CSC1=NCCS1)Nc1ccc(S(=O)(=O)N2CCCCCC2)cc1
EC50 (Protein RecA): 10.1 µM (active) | AC50 [14]: 21.8 µM (active) | EC50 [4]: 7.64 µM (active)

CN(CCS(=O)(=O)c1ccc(Cl)cc1)Cc1cccnc1
EC50 (cells [1]): > 350 µM (not active) | EC50 (cells [2]): > 350 µM (not active)

COc1ccc(OC)c2sc(N3CCN(C(=O)c4ccc5ncsc5c4)CC3)nc12
EC50 (cells [1]): > 350 µM (not active) | EC50 (cells [2]): > 350 µM (not active)

O=S(=O)(c1ccc2c(c1)CCCN2)N1CCCC2CCCCC21 (stereo unspecified)
IC50 [3]: 12.4 µM (not active)

C[C@@]12C(=O)Nc3ccc(Br)cc3C(=O)N1[C@H]1c3ccccc3OC[C@@H]1[C@@H]2c1ccccc1
AC50 [13]: 0.427 µM (active)

c1ccc(-c2ccccc2-c2nc(-c3cccnc3)no2)cc1
EC50 [4]: 8.07 µM (active)

CCNc1nc(NCC)n2c(SC(C(=O)Nc3cc(Cl)cc(Cl)c3)c3ccccc3)nnc2n1 (stereo unspecified)
AC50 [15]: 1.59 µM (active) | CC50 [16]: 6.19 µM (active) | EC50 [9]: 5.99 µM (active) | EC50 [10]: 6.35 µM (active)
